We go through seven compounds from PubChem BioAssay (NCI).

Experiment in all cases: NCI-60 cell line screen, 48 h
Assay [1] has as its system TK-10 renal.
The test system of assay [2] is IGROV1 ovarian.
The subject of assay [3] is A498 renal.
In assay [4] the test system is NCI/ADR-RES ovarian.
The subject of assay [5] is MDA-MB-231 breast.
In assay [6] the test system is CCRF-CEM leukemia.
Assay [7] deals with SK-MEL-5 melanoma.
Assay [8] relates to UO-31 renal.
Assay [9] concerns MOLT-4 leukemia.
Assay [10] relates to HOP-62 NSCLC.

Where “and” joins values, the source holds several entries; their conditions need not be identical. Equal values may be shown once.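 Interpolation was linear, between the two tested concentrations surrounding the appropriate level; five concentrations were tested over 48 hours in 96-well plates. The concentration for 50% growth inhibition is given as GI50. TGI: total growth inhibition.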 A value given as a limit tells only on which side of the number the result lay.

In the case of `C=C(C)[C@@H]1CC[C@]2(C(=O)NS(=O)(=O)c3ccccc3)CC[C@]3(C)[C@H](CC[C@@H]4[C@@]5(C)CC[C@H](OC(=O)NS(=O)(=O)c6ccccc6)C(C)(C)[C@@H]5CC[C@]43C)[C@@H]12`, the GI50 is 2.43 µM in [1]; 2.46 µM in assay [2]; 1.65 µM in assay [3]; 3.87 µM in [4]; 2.92 µM in assay [5]; 2.29 µM in [6]. Moreover, the GI50 is 1.48 µM in [7], 1.49 µM in assay [8], 2.58 µM in [9] and 2.33 µM in assay [10]. Moreover, the TGI in [1] was 10.3 µM; in assay [2] it was 5.56 µM; in assay [3] it was 4.69 µM; in assay [4], 24 µM; in assay [5] it was 12.1 µM; in [6], 19.5 µM. The TGI in [7] amounted to 2.98 µM; in assay [8], 3.04 µM; in [9] it was 24 µM; in assay [10], 6.83 µM.
Turning to `Cc1cc(O)c(-c2ccc([C@@H](C)CN(C)C)cc2)c2c1[nH]c(=O)c1sccc12`, the GI50 in [1] was 0.647 µM; in assay [2], 0.534 µM; in [3] it was 0.265 µM; in assay [4], 2.72 µM; in [5] it was 0.608 µM; in assay [6], 1.77 µM. Further, the GI50 in assay [7] was 0.805 µM; in assay [8], 0.287 µM; in assay [9], 1.69 µM; in assay [10] it was 0.886 µM. Further, the TGI was 5.87 µM in assay [1]; 5.16 µM in assay [2]; 0.929 µM in assay [3]; 24.1 µM in [4]; 28.6 µM in assay [5]; greater than 41.9 µM in assay [6]. In addition, the TGI in [7] turned out to be 3.98 µM; in assay [8] it was 1.88 µM; in [9], 17.7 µM; in [10], 5.57 µM.
With `CCn1c2ccccc2c2cc(C(=O)c3ccc(C)c4ccccc34)ccc21`, the GI50 in assay [1] was 0.658 µM; in assay [2], 0.635 µM; in [3], 0.282 µM; in assay [4], 0.312 µM; in assay [5], 0.824 µM; in assay [6], 0.359 µM. Also, the GI50 in assay [7] is 0.319 µM; in assay [8] it was 0.716 µM; in [9], 0.0578 µM; in assay [10] it was 0.476 µM. Besides, the TGI was greater than 100 µM in assay [1]; greater than 100 µM in [2]; 1.15 µM in [3]; greater than 100 µM in assay [4]; greater than 100 µM in [5]; greater than 100 µM in assay [6]. For the same compound, the TGI in [7] is 1.41 µM; in assay [8], greater than 100 µM; in [9], greater than 100 µM; in [10] it was greater than 100 µM.
Turning to `CS(=O)(=O)N(c1cc(-c2ccc3ncnc(Nc4ccc(F)c(Cl)c4)c3c2)cnc1Cl)S(C)(=O)=O`, the GI50 in [1] was 0.44 µM; in [2], 0.196 µM; in assay [3], 0.342 µM; in assay [4] it was 2.54 µM; in assay [5] it was 1.75 µM; in assay [6] it was 0.527 µM. The GI50 in assay [7] was 0.978 µM; in [8], 0.27 µM; in assay [9], 1.18 µM; in assay [10] it was 0.957 µM. In addition, the TGI was 3.73 µM in assay [1]; 0.786 µM in [2]; 1.56 µM in [3]; 20.9 µM in [4]; 9.65 µM in assay [5]; greater than 100 µM in assay [6]. Further, the TGI in [7] was 2.42 µM; in [8], 2.99 µM; in assay [9] it was 7.74 µM; in assay [10] it was 14.7 µM.
Take `Nc1cccc2c1C(=O)c1cccc(NC(=O)c3ccccc3)c1C2=O`: the GI50 in assay [1] is 1.13 µM; in [2], 0.503 µM; in assay [3], 0.306 µM; in assay [4] it was 0.212 µM; in [5], 1.06 µM; in [6] it was 0.401 µM. In addition, the GI50 in assay [7] is 0.355 µM; in [8], 0.474 µM; in assay [9], 0.751 µM; in assay [10], 0.535 µM. Further, the TGI is 8.13 µM in [1]; greater than 81.4 µM in assay [2]; 6.56 µM in assay [3]; greater than 100 µM in assay [5]; greater than 100 µM in [6]; 15 µM in assay [7]. Also, the values for the TGI in assay [8], in assay [9] and in assay [10] were greater than 100 µM, greater than 100 µM and 21.5 µM, respectively.
In the case of `CNC(=O)c1ccccc1Nc1nc(Nc2ccc3c(c2OC)CCC[C@H](N2CCN(CCO)CC2)C3)ncc1Cl`, the GI50 in [1] is 2.97 µM and 0.656 µM; in assay [2], 1.02 µM and 0.801 µM; in assay [3] it was 1.38 µM and 2.22 µM; in assay [4], 4.62 µM and 3.01 µM; in [5] it was 1.34 µM and 1.62 µM; in assay [6] it was 2.95 µM and 2.97 µM. In addition, the GI50 in assay [7] is 1.74 µM and 1.64 µM; in assay [8], 1.38 µM and 0.714 µM; in assay [9] it was 2.45 µM and 2.82 µM; in [10] it was 2.84 µM and 2.77 µM. Further, the TGI was 18.2 µM and > 10 µM in [1]; 5.75 µM and 4.96 µM in assay [2]; 3.23 µM and 9.95 µM in assay [3]; 17.9 µM and > 10 µM in [4]; 3.26 µM and 7.04 µM in assay [5]; 11 µM and > 10 µM in assay [6]. Also, the TGI in assay [7] was 4.87 µM and 5.19 µM; in [8] it was 11.6 µM and 7.69 µM; in [9] it was 6.75 µM and > 10 µM; in assay [10] it was 16.8 µM and > 10 µM.
As to `C[N+](C)=c1ccc2nc3c(cc(NCCCNc4cc5oc6cc(=[N+](C)C)ccc-6nc5c5ccccc45)c4ccccc43)oc-2c1`, the GI50 in [1] is 17.3 µM; in [2], 1.36 µM; in assay [3] it was 19.1 µM; in assay [4] it was 6.63 µM; in assay [5], 1.33 µM; in assay [6] it was 4.39 µM. For the same compound, the GI50 in [7] is 1.41 µM; in assay [8] it was 1.75 µM; in assay [9], 3 µM; in [10], 2.92 µM. The TGI in [1] was 39.3 µM; in assay [2], 8.67 µM; in assay [3], 46.9 µM; in assay [4], greater than 100 µM; in [5], 4.83 µM; in assay [6] it was 21.7 µM. The TGI stood at 2.79 µM in assay [7], 14 µM in assay [8], 25 µM in [9] and 13 µM in [10].
